Reference: patent US12122760B2, “Compound, composition, and use thereof in preparation of drug” (CHANGSHA ZEDA MEDICAL TECH. CO., LTD, priority 2019, dated 2024)

What was measured:
androgen receptor (AR) = biological target: T1, androgen receptor (AR) (Homo sapiens, UniProt P10275); experiment: Luciferase reporter gene experiment (MMTV-LUC + pSV-AR in 293T cells); format: cell-based; details: 10 nM DHT, FIG. 2
T1 construct: expressed in transfected cells; host or cells: 293T cells
T1 sequence (P10275 1-920): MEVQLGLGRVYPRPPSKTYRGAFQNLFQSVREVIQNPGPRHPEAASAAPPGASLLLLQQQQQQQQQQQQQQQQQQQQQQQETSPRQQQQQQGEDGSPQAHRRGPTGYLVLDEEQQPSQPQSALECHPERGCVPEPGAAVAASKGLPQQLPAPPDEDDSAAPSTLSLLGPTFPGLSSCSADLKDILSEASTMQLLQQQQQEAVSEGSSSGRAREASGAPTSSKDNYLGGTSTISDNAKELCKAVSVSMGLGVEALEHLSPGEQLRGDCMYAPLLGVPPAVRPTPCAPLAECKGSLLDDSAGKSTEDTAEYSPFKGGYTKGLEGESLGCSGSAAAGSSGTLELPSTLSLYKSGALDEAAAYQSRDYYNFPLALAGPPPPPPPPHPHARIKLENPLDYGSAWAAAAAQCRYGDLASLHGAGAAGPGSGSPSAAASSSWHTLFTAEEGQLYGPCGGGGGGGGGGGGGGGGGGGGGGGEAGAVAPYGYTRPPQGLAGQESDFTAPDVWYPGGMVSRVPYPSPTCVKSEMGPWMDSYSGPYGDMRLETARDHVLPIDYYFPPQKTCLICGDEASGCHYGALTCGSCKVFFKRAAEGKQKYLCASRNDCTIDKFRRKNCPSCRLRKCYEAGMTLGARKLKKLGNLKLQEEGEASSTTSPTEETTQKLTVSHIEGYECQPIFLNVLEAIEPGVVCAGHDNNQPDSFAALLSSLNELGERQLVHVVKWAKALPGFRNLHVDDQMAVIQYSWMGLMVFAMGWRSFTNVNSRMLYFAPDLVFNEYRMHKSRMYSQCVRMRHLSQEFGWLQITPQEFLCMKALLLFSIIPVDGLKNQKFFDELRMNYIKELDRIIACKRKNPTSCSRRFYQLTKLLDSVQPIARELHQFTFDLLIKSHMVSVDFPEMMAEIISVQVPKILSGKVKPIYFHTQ
Experimental: 293T cells are cultured in a 96-well plate. AR plasmids and luciferase genes with AR target promoters are co-transfected in the 293T cells. AR activates the target promoters to express luciferase, and the expression level of the luciferase is directly proportional to AR activation. Adding DHT to the cells can activate AR and express the luciferase, thus enhancing fluorescence signal detection. By detecting the fluorescent signal, it can be examined whether an added drug has AR antagonist activity.
The luciferase reporter gene plasmid MMTV-LUC containing the androgen receptor (AR) target promoters and the plasmid pSV-AR expressing the androgen receptor (AR) are constructed. The 293T cells are inoculated in a 96-well plate, wherein each well containing 1×10^4 cells. The cells are incubated overnight to stick to the wall. On the second day, Lipofectamine® 3000 (Life technologies, USA) is used to transfect the plasmid into the cells. Each well is added with 180 ng of MMTV-LUC plasmid and 20 ng of pSV-AR plasmid. On the third day, each well is added with 10 nM of the DHT and the drugs of different concentrations of 1 nM, 10 nM, 100 nM, 1 uM, 10 uM, 25 uM, 50 uM respectively. The control is 10 nM of the DHT. On the fifth day, a luciferase reporter gene detection kit (Biyuntian company, China) is used to process the cells. 100 uL of cell lysate is added to the 96-well plate, and lyse for 20 min. Then centrifuging is performed at 4 degrees and 10000 g for 3 min. 50 uL of supernatant is taken and 100 uL of a luciferase detection reagent is added. After mixing, chemiluminescence is immediately detected on the multi-functional microplate reader. Graphpad Prism software is used to draw a curve by using the drug concentration as an abscissa and using drug fluorescence value/positive control fluorescence value as an ordinate. Herein MDV3100 is the positive control.

[1] = tested on: Histone deacetylase (HDAC); experiment: HDAC inhibitory activity: Kac-H3 Western Blot in VCaP cells; format: cell-based; details: 10 uM drug, 24 h, FIG. 5
Experimental: (§1) The VCap cells are cultured in the 6-well plate. After treating the VCap cells with the drugs for 24 hours, acetylation levels of the tubulin in the cytoplasm and the H3 protein in the nucleus are examined by the western blot. An experiment process is as follows:
The VCaP cells are spread in the 6-well plate. 5×10^5 cells are inoculated per well, and incubated overnight to make the cells stick to a wall. Then 10 uM of the drug is added to each well. The cells are collected after being incubated for 24 h. The EpiQuik Total Histone Extraction kit (Epigentek, USA) is used to extract the histones, and the Western Blot method is used to detect expression levels of Kac-H3 (localized cell nucleus) in the cells after adding the different drugs.

VCaP cells = experiment: Inhibiting effect on VCaP cell proliferation (MTS); format: cell-based; details: 4 days treatment, FIG. 6; for cell proliferation inhibitory effect compared with positive control drug MDV3100: VCaP cells
Experimental: Androgen-sensitive prostate cancer cell (VCaP cells) are cultured in a 96-well plate. The VCaP cells are able to proliferate in a medium supplemented with 10 nM of the DHT. After treating the cells with the drugs for 4 days, we measure the effects of the drugs on the proliferation of the prostate cancer cells.
The VCaP cells are cultured by using 5% CSS and 1640 medium without phenol red, and inoculated in the 96-well plate. 1×10^4 cells are added to each well, and incubated overnight to make the cells stick to a wall. Different concentrations of the drugs are added on the second day. After treating the cells with the drugs for 4 days, cell viability is measured by the MTS kit (Promega, USA). To each well, 10% of an MTS reagent is added, and incubation continued for 2 hours. The absorbance value at […] is then measured by the multi-functional microplate reader. The Graphpad Prism software is used to draw a curve by using the drug concentration as an abscissa and using the absorbance value of the drug treatment/the absorbance value of the blank treatment cell as an ordinate.

[2] = tested on: Histone deacetylase (HDAC); experiment: HDAC inhibitory activity: Kac-tubulin Western Blot in VCaP cells; format: cell-based; details: 10 uM drug, 24 h, FIG. 4
Experimental: as §1
The VCaP cells are spread in the 6-well plate. 5×10^5 cells are inoculated per well, and incubated overnight to make the cells stick to a wall. On the second day, 10 uM of the drug is added per well. After being incubated for 24 h, the cells are collected, and lysed to extract the cell total protein. The Western Blot method is used to detect the expression levels of Kac-tubilin (localized cytoplasm) in the cells after treating with the different drugs.

AR-LBD (GST) = biological target: T2, AR-LBD (GST) (Rattus norvegicus, UniProt P15207); experiment: PolarScreen Androgen Receptor (AR) Competitor Assay, binding experiment of the antagonist and AR; details: fluorescence polarization, incubated 6 hours, FIG. 1; read-out: IC50 of the drug and AR-LBD binding
T2 construct: purchased Life technologies company, USA
T2 sequence (P15207 651-882 limits assumed): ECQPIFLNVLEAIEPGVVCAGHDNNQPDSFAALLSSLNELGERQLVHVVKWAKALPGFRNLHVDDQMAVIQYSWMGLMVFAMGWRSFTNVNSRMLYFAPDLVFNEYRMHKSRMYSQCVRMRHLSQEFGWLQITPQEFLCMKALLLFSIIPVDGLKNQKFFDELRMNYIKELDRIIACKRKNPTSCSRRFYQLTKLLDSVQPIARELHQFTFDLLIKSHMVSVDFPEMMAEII
Description: PolarScreen™ Androgen Receptor (AR) Competitor Assay, Green kit (Life technologies company, USA) is used to test the affinity of the antagonist to AR-LBD (GST). The mechanism of the experiment is that the AR-LBD is combined with a small molecule fluormone tracer (Fluormone Tracer), and an antagonist added can competitively bind with AR-LBD so as to replace the fluormone tracer, and the replaced fluormone tracer […], and the value of the fluorescence polarization is inversely proportional to the number of the replaced tracers.
A specific process is as follows: the drug is dissolved into 500 uM by using DMSO, and then diluted to 244 nM by double dilution concentration gradients in a 96-well plate. A 10 uL of a reaction system AR-LBD+Tracer is configured in a 384-well plate and 10 uL of the drug solution is added. The positive control is 10 uL of AR-LBD+Tracer with 10 uL of DHT added. The 384-well plate is wrapped by tin foil and incubated for 6 hours in the dark. The fluorescence polarization value is read on a multi-function microplate reader. Graphpad Prism software is used to draw a drug concentration as an abscissa, and the fluorescence polarization value is used as an ordinate for drawing a curve. […] Herein, the DHT, MDV3100, and ARN509 are positive controls.

Row | SMILES | antagonist effect on the AR, antagonistic ability from high to low (androgen receptor (AR)) | H3 acetylation in the nucleus (HDAC inhibitory activity) [1] | inhibitory effect on the VCap cell proliferation, from high to low (VCaP cells) | acetylation of the tubulin in the cytoplasm (HDAC inhibitory activity) [2] | cell proliferation inhibitory effect compared with positive control drug MDV3100 (VCaP cells) | IC50 (AR-LBD (GST)) [µM]
1 | N#Cc1ncc(N2C(=O)C3(CCC3)N(c3ccc(C(=O)NO)c(F)c3)C2=S)cc1C(F)(F)F [Zeta 57, 4-(7-(6-cyano-5-(trifluoromethyl)pyridin-3-yl)-8-oxo-6-thio-5,7-diazaspiro[3.4]octane-5-yl)-2-fluoro-N-hydroxybenzamide] | Zeta32>Zeta55>Zeta34>Zeta57>Zeta33 | superior | Zeta55>Zeta32>Zeta33>Zeta34>Zeta57 |  |  | 
2 | CC1(C)C(=O)N(c2ccc(C#N)c(C(F)(F)F)c2)C(=S)N1c1ccc(C(=O)NO)c(F)c1 [Zeta 32, 4-(3-(4-cyano-3-(trifluoromethyl)phenyl)-5,5-dimethyl-4-oxo-2-thioimidazolidine-1-yl)-2-fluoro-N-hydroxybenzamide] | Zeta32>Zeta55>Zeta34>Zeta57>Zeta33 | superior | Zeta55>Zeta32>Zeta33>Zeta34>Zeta57 | superior | better than that of the positive control drug MDV3100 | 25.1
3 | CC1(C)C(=O)N(c2ccc(C#N)c(Cl)c2)C(=S)N1c1ccc(C(=O)NO)c(F)c1 [Zeta 34, 4-(3-(3-chloro-4-cyanophenyl)-5,5-dimethyl-4-oxo-2-thioimidazolidine-1-yl)-2-fluoro-N-hydroxybenzamide] | Zeta32>Zeta55>Zeta34>Zeta57>Zeta33 | superior | Zeta55>Zeta32>Zeta33>Zeta34>Zeta57 |  |  | 
4 | CC1(C)C(=O)N(c2cnc(C#N)c(C(F)(F)F)c2)C(=S)N1c1ccc(C(=O)NO)c(F)c1 [Zeta 33, 4-(3-(6-cyano-5-(trifluoromethyl)pyridin-3-yl)-5,5-dimethyl-4-oxo-2-thioimidazolidine-1-yl)-2-fluoro-N-hydroxybenzamide] | Zeta32>Zeta55>Zeta34>Zeta57>Zeta33 |  | Zeta55>Zeta32>Zeta33>Zeta34>Zeta57 |  | better than that of the positive control drug MDV3100 | 27.5
